Experimental data reported in article PMC10726475, “Atypical N-Alkyl to N-Noralkoxy Switch in a Dual cSRC/BCR-ABL1 Kinase Inhibitor Improves Drug Efflux and hERG Affinity” (ACS Medicinal Chemistry Letters, 2023).
≈ marks a conversion by molar mass, not a printed value. Where “and” joins values, the source holds several entries; their conditions need not be identical. Identical values can stand only once. Like-named read-outs stand apart in the source and are kept apart here.

Tests used:
Caco-2 cells = assay: Caco-2 cell permeability
in vitro = settings: human, Caco-2
MDCKII-MDR1 cells [1] = settings: dog, MDCK-MDR1
Description: (§1) Abbreviations: Papp, apparent permeability; AP, apical; BL, basolateral.

P-gp (MDR1) = assay: in vitro; settings: dog, MDCK-MDR1
Description: as §1

[2] = Metabolic stability in human liver microsomes; assay type: in vitro ADME
Molt-4 cells = assay: Cell viability assay (CellTiter-Glo), Molt-4; assay type: cell-based, human; settings: Homo sapiens, MOLT-4; BCR-ABL1 negative; read-out: IC50, Molt-4
[3] = Metabolic stability in human hepatocytes; assay type: in vitro ADME
MDCKII-MDR1 cells [4] = assay: MDCKII-MDR1 cell permeability
Description: as §1

[5] = Metabolic stability in rat hepatocytes; assay type: in vitro ADME
[6] = Metabolic stability in rat liver microsomes; assay type: in vitro ADME
[7] = Plasma protein binding by equilibrium dialysis, human; assay type: in vitro ADME
Description: (§2) Human plasma (mixed gender) Ltd-People’s Hospital of Shandong Weifang Hi-
(§3) Tech Industrial Development Zone (Batch No. P-
(§4) Rat plasma (SD/mixed gender) BiolVT (Batch No. RAT501985)
(§5) Mouse plasma (CD-1/mixed gender) IPHASE or BiolVT (Batch No. MSE427337)

[8] = set-up: method as in NDA application no. 203341 Pharmacology Review(s) page 40; settings: nude mice, 50 mg/kg po and 5 mg/kg iv dosing, ref NDA application no. 203341 Pharmacology Review(s) page 40; cited from earlier work
[9] = Solubility in aqueous buffer at pH 7.4; assay type: physicochemical; settings: aqueous buffer at pH 7.4, n = 1; read-out: aq sol.
[10] = logD7.4 by shake-flask method; assay type: physicochemical; settings: pH 7.4
[11] = Plasma protein binding by equilibrium dialysis, rat; assay type: in vitro ADME; settings: for fu, plasma % / %Unbound: 5 μM, equilibrium dialysis
Description: as §2, §3, §4, §5

[12] = pKa determination by pH-metric method; assay type: physicochemical
Protocol: Figure 3 Matched molecular pair (MMP) analysis on the 2-methoxyphenoxy-propyl-N-methylpiperazine scaffold and pKa values of related δ-alkoxy substituted amines. (A) MMP analysis of a bosutinib fragment. All measurements were assayed by Pharmaron Inc., and values presented represent the mean of n = 2 technical replicates, unless otherwise specified. logD7.4 was determined by the shake-flask method. […] (B) Reported[54] pKa values of related dimethylamines highlighting similarities in pKa values of δ-alkoxy substitution patterns. TEXT PRINTED IN THE PICTURE: (A) 17: logD7.4: 0.9; Aq. Sol. (μM): 277; pKa1: 4.2; pKa2: 8.1 | (A) 18: logD7.4: 1.0; Aq. Sol. […]
Inc. using methods previously derscribed.1 […]
Shedlovsky extrapolation for the pH-metric pKa method. […]

[13] = cited from earlier work; for ΔpKa: relative to simple tertiary amine 19, δ-position substituent
[14] = pH-metric method, range -12, read-out: pKa1

For COCCc1ccc(OCC(O)CNC(C)C)cc1 (stereo not shown) [Metoprolol], the “Recovery% (BL-AP)” value (Caco-2 cells) was 100.41%, the Papp A→B at 2 h, 5 μM (in vitro) was 23.1 ×10⁻⁶ cm/s and the Papp B→A at 2 h, 5 μM (in vitro) was 21.8 ×10⁻⁶ cm/s. For the same compound, the efflux ratio at 2 h, 5 μM (in vitro) was 0.95, the recovery (in vitro) was 106% and the “Recovery% (BL-AP)” value (MDCKII-MDR1 cells [1]) was 96.11%. It also gave a Papp A→B at 2 h, 1 μM (P-gp (MDR1)) of 27.9 ×10⁻⁶ cm/s, a Papp B→A at 2 h, 1 μM (P-gp (MDR1)) of 31 ×10⁻⁶ cm/s and an efflux ratio at 2 h, 1 μM (P-gp (MDR1)) of 1.11. For the same compound, the recovery (P-gp (MDR1)) was 99.9%.
For COc1cc(Nc2c(C#N)cnc3cc(OCCCN4CCN(C)CC4)c(OC)cc23)c(Cl)cc1Cl [bosutinib], the “Recovery% (BL-AP)” value (Caco-2 cells) was 70.73%, the “Remaining Percentage, 0.5 min” value ([2]; +Cofactors) was 100.00% and the “Remaining Percentage, 15 min” value ([2]; +Cofactors) was 12.40%. The “Remaining Percentage, 30 min” value ([2]; +Cofactors) was 2.94%, the “Remaining Percentage, 45 min” value ([2]; +Cofactors) was 1.16% and the “Remaining Percentage, 60 min” value ([2]; +Cofactors) was “BLOD”. For the same compound, the “Remaining Percentage, 0.5 min” value ([2]; -Cofactors) was 100.00%, the “Remaining Percentage, 60 min” value ([2]; -Cofactors) was 91.23% and the half-life at 1 h ([2]; both sexes, pooled) was 4.8 min. For the same compound, the microsomal CLint at 1 h ([2]; both sexes, pooled, read-out: LMClint) was 288 µL/min/mg, the IC50 (Molt-4 cells) was > 2000 nM and the “Remaining Percentages, 0.5 min” value [3] was 100.00%. For the same compound, the “Remaining Percentages, 15 min” value [3] was 73.99%, the “Remaining Percentages, 30 min” value [3] was 79.28% and the “Remaining Percentages, 60 min” value [3] was 53.95%. For the same compound, the “Remaining Percentages, 90 min” value [3] was 34.15%, the “Remaining Percentages, 120 min” value [3] was 20.73% and the half-life at 2 h ([3]; both sexes) was 54.9 min. The hepatocyte CLint at 2 h ([3]; both sexes) was 25.3 µL/min/1e6 cells, the “Recovery% (BL-AP)” value (MDCKII-MDR1 cells [4]) was 65.52% and the “Remaining Percentages, 0.5 min” value [5] was 100.00%. The “Remaining Percentages, 15 min” value [5] was 50.17%, the “Remaining Percentages, 30 min” value [5] was 21.78% and the “Remaining Percentages, 60 min” value [5] was 5.83%. The “Remaining Percentages, 90 min” value [5] was 1.83%, the “Remaining Percentages, 120 min” value [5] was 0.73% and the half-life at 2 h ([5]; male, SD) was 13.4 min. For the same compound, the hepatocyte CLint at 2 h ([5]; male, SD) was 103 µL/min/1e6 cells, the “Remaining Percentage, 0.5 min” value ([6]; +Cofactors) was 100.00% and the “Remaining Percentage, 15 min” value ([6]; +Cofactors) was 14.79%. For the same compound, the “Remaining Percentage, 30 min” value ([6]; +Cofactors) was 5.02%, the “Remaining Percentage, 45 min” value ([6]; +Cofactors) was 2.62% and the “Remaining Percentage, 0.5 min” value ([6]; -Cofactors) was 100.00%. The half-life at 1 h ([6]; male, SD, pooled) was 5.3 min, the microsomal CLint at 1 h ([6]; male, SD, pooled, read-out: LMClint) was 264 µL/min/mg and the “fu, plasma % / %Unbound” value ([7]; 5 μM, equilibrium dialysis) was 4.53%. For the same compound, the recovery ([7]; both sexes) was 94%, the fraction unbound at 6 h, 5 µM ([7]; both sexes, 5 μM, equilibrium dialysis, read-out: fu, plasma % / %Unbound) was 0.045 and the fraction unbound at 5 μM ([7]; both sexes, read-out: %Bound (converted)) was 0.0453. The AUCinf [8] was 11 677 h·nM, the Cmax [8] was 1510 nM and the solubility [9] was 14 µM (≈ 7.43 µg/mL). For the same compound, the logD at 2 h [10] was 3.1, the recovery (P-gp (MDR1)) was 56% and the “fu, plasma % / %Unbound” value [11] was 7.2%. For the same compound, the “fu, plasma % / %Unbound” value ([11]; listed as Bosutinib) was 7.20%, the recovery ([11]; both sexes, SD) was 91.1% and the remaining at 6 h, 5 μM ([11]; both sexes, SD) was 90.7%. For the same compound, the fraction unbound at 5 μM ([11]; both sexes, SD, read-out: fu, plasma % / %Unbound (converted)) was 0.072.
With COc1ccccc1OCCCN1CCN(C)CC1 [compound 17] the pKa ([12]; pH 2, pH-metric method, range pH 2-12, read-out: pKa2) was 8.1, the pKa [12, 14] was 4.2 and the solubility [9] was > 250 µM and 277 µM. It also gave a logD at 2 h [10] of 0.9.
For COc1ccccc1OCCON1CCN(C)CC1 [compound 18], the pKa [12, 14] was 7.4, the ΔpKa ([12]; terminal N-methylamine of 18 relative to 17) was −0.7 and the solubility [9] was > 250 µM and 287 µM. It also gave a logD at 2 h [10] of 1.
For COCCCN(C)C [compound 20], the ΔpKa [13] is listed as −0.8.
In the case of CN(C)CCCO [compound 21], the ΔpKa [13] is listed as −0.9.
For NO [hydroxylamine], the pKa ([13]; simple hydroxylamine) is listed as 5.9.
